This is an account of results in patent US20260137642A1 (CANCER PREVENTION PHARMACEUTICALS, INC., priority 2021, published 2026).

The test system of experiment [1] is C-peptide. Briefly: Phase I/II trial in new onset T1D: C-peptide by 2-h MMTT. Format: in vivo, human. As to conditions: for C-peptide area under the curve values compared to the placebo group: 6-month post-randomization visit. On the procedure:
This study was double-blind, placebo-controlled, 2:1 random assigned, phase I/II clinic trial for individuals with type 1 diabetes. The blinded dose-ranging study enrolled persons with new onset T1D with documented continued residual C-peptide production. […] After a 3 month wash-out period, the durability of effect was assessed. [table]

Experiment [2] concerns the target T1, ODC enzyme activity (Homo sapiens, UniProt P11926).
T1 construct: from tissue; host or cells: human epithelial tissues (in vivo, oral dosing); finding cited from the literature
T1 sequence (P11926 1-461): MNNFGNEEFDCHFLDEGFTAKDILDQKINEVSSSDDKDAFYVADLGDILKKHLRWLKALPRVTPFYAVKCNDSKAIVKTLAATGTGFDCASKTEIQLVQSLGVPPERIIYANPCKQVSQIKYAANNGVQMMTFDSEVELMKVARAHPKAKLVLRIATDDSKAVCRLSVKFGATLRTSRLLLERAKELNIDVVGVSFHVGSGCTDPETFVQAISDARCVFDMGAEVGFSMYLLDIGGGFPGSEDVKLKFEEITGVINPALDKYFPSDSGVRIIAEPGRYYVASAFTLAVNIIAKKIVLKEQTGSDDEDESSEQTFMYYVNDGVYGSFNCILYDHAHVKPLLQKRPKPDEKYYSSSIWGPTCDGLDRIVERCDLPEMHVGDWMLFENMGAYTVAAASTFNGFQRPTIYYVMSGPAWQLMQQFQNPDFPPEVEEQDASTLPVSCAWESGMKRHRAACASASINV
Conditions: oral, daily, humans; cited from earlier work.

Experiment [3] has as its system islet replication. As to conditions: in vitro; cited from earlier work.

Take `NCCCC(N)(C(=O)O)C(F)F` (centres unmarked) [eflornithine, 2,5-diamino-2-(difluoromethyl) pentanoic acid]: the “C-peptide area under the curve values compared to the placebo group” value in experiment [1] (750 mg/m^2 dose) and in experiment [1] (1000 mg/m^2 dose) was “significantly higher” in each case. The “β cell function compared to placebo” value in experiment [1] (at higher doses, 3-month oral course) is recorded as “greater β cell function compared to placebo”. In experiment [2], the “ODC enzyme activity and polyamine contents in epithelial tissues” value was “inhibits ODC enzyme activity and polyamine contents”. Further, the “Effect on islet replication” value in experiment [3] is recorded as “little effect on islet replication”.
